Here are results for 1 compound from patent US10662195B2, “Protein kinase conjugates and inhibitors” (Celgene Avilomics Research, Inc., priority 2009, dated 2020).

The target of the test is T1, FLT3 (Homo sapiens, UniProt P36888).
T1 construct: purchased PV3182
T1 sequence (P36888 27-993): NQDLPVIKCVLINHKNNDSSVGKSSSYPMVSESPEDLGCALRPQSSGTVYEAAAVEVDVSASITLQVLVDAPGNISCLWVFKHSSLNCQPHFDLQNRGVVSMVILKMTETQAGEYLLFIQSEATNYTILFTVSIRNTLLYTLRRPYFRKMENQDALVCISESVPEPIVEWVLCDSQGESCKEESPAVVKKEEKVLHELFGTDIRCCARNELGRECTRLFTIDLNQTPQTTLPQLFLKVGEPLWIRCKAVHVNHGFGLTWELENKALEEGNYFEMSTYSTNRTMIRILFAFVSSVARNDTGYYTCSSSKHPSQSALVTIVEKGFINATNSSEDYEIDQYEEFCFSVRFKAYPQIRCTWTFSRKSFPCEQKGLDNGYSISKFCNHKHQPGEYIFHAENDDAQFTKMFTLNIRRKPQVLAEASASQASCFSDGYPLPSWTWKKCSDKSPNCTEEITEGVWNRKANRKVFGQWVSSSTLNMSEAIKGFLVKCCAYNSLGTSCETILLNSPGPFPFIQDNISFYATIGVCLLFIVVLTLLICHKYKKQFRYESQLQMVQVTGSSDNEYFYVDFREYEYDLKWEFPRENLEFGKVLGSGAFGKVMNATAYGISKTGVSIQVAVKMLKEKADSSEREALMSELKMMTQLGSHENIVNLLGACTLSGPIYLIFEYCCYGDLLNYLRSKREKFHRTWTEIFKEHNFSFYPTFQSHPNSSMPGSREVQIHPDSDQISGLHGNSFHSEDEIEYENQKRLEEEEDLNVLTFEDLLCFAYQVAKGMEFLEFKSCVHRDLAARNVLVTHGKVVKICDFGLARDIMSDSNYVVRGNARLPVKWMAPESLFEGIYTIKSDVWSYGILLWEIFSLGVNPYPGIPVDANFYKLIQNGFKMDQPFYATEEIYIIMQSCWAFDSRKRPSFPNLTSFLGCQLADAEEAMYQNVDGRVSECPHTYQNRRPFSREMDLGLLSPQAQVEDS
As to the kind of experiment: FLT-3 Omnia continuous-read kinase assay. The format is biochemical. Particulars: 30 min pre-incubation, [ATP]=500 μM; read-out: IC50_APP FLT3. The procedure:
A. KDR and FLT-3 Omnia Assay for Potency Assessment:
The protocol below describes a continuous-read kinase assay to measure inherent potency of Avila Therapeutics' compounds against active KDR and FLT-3 enzymes. The assay was performed substantially as described by the vendor (Invitrogen, Carlsbad, Calif.; http://www.invitrogen.com/content.cfm?pageid=11338.)
Briefly, 10× stocks of KDR from Invitrogen or BPS Bioscience (PV3660 or 40301) and FLT-3 (PV3182) enzymes, 1.13×ATP (AS001A) and Y9-Sox or Y12-Sox peptide substrates (KCZ1001) were prepared in 1× kinase reaction buffer consisting of 20 mM Tris, pH 7.5, 5 mM MgCl2, 1 mM EGTA, 5 mM β-glycerophosphate, 5% glycerol (10× stock, KB002A) and 0.2 mM DTT (DS001A). 5 μL of enzyme were pre-incubated in a Corning (#3574) 384-well, white, non-binding surface microtiter plate (Corning, N.Y.) for 30 min at 27° C. with a 0.5 μL volume of 50% DMSO and serially diluted compounds prepared in 50% DMSO. Kinase reactions were started with the addition of 45 μL of the ATP/Y9 or Y5-Sox peptide substrate mix and monitored every 30-90 seconds for 60 minutes at λex360/λem485 in a Synergy^4 plate reader from BioTek (Winooski, Vt.). At the conclusion of each assay, progress curves from each well were examined for linear reaction kinetics and fit statistics (R^2, 95% confidence interval, absolute sum of squares). Initial velocity (0 minutes to 20+ minutes) from each reaction was determined from the slope of a plot of relative fluorescence units vs time (minutes) and then plotted against inhibitor concentration to estimate IC50 from Log [Inhibitor] vs Response, Variable Slope model in GraphPad Prism from GraphPad Software (San Diego, Calif.).
[FLT-3]=15 nM, [ATP]=500 μM and [Y5-Sox peptide]=10 μM (ATP KMapp=470 μM)
The reported IC50_APP and IC50 values are in units of nM.

Take `C=CC(=O)N1CCC(Sc2nc(Nc3ncc(C#N)s3)cc(N3CCN(C)CC3)n2)CC1` [II-2, 2-(2-(1-Acryloylpiperidin-4-ylthio)-6-(4-methylpiperazin-1-yl)pyrimidin-4-ylamino)thiazole-5-carbonitrile]: the IC50 worked out at 508 pM.
